Data taken from ChEMBL document CHEMBL2010742, “Phaeosphaerins A-F, cytotoxic perylenequinones from an endolichenic fungus, Phaeosphaeria sp” (J Nat Prod, 2012).
Active and inactive are the calls of the source. The rule behind the calls is not given here.

Legend:
[1] = Drug uptake in human MCF7 cell lysosomes at 20 uM after 10 mins by […] staining-based confocal microscopic analysis; type: ADME, Lysosome; conditions: mcf7, 10 min
[2] = tested on: K562; test: Cytotoxicity against human K562 cells after 24 hrs by MTT assay; type: functional, cell-based; conditions: K562, 24 h
[3] = tested on: K562; test: Cytotoxicity against human K562 cells treated for 4 hrs followed irradiated with […] light for 1000 seconds by MTT assay; type: functional, cell-based; conditions: K562, light or radiation study
[4] = tested on: K562; test: Induction of ROS production in human K562 cells at 10 uM after 3 hrs by DCF fluorescence analysis; type: functional, cell-based
[5] = tested on: PC-3; test: Cytotoxicity against human PC3 cells after 24 hrs by MTT assay; type: functional, cell-based; conditions: PC-3, 24 h
[6] = tested on: DU-145; test: Cytotoxicity against human DU145 cells after 24 hrs by MTT assay; type: functional, cell-based; conditions: DU-145, 24 h
[7] = tested on: LNCaP; test: Cytotoxicity against human LNCAP cells after 24 hrs by MTT assay; type: functional, cell-based

SMILES | Drug uptake [1] | IC50 [2] [µM] | IC50 [3] [µM] | Activity [4] | IC50 [5] [µM] | IC50 [6] [µM] | IC50 [7] [µM]
COc1c2c3c4c(c(OC)c(=O)c5c(O)cc(OC)c(c6c(OC)cc(O)c(c1=O)c63)c54)[C@@H](C(C)=O)[C@@](C)(O)C2 [HYPOCRELLIN A] | Active | 7.47 | 0.55 | Active | – | – | –
COC1=C2c3c4c5c(c(O)cc(OC)c5c5c(OC)cc(O)c(c35)C1=O)C(=O)[C@H](OC)[C@]41C[C@H](C)O[C@@]2(C(C)=O)O1 [PHAEOSPHAERIN E] | – | – | – | – | 5.25 | 16.2 | 10.1
COC1=C2c3c4c5c(c(O)cc(OC)c5c5c(OC)cc(O)c(c35)C1=O)C(=O)[C@@H](OC)[C@@]41C[C@H](C)O[C@]2(O)[C@]1(C)O [PHAEOSPHAERIN D] | – | – | – | – | 9.74 | 20.2 | 24.9
COC1=C2c3c4c5c(c(O)cc(OC)c5c5c(OC)cc(O)c(c35)C1=O)C(=O)[C@@H](OC)[C@@]41C[C@H](C)O[C@]2(C(C)=O)O1 [PHAEOSPHAERIN F] | – | – | – | – | 5.45 | 16.7 | 11.8
COC1=C2c3c4c5c(c(O)cc(OC)c5c5c(OC)cc(O)c(c35)C1=O)C(=O)[C@@H](OC)[C@@]41C[C@H](C)O[C@@]21C(C)=O [PHAEOSPHAERIN B] | – | – | – | – | 2.42 | 9.54 | 2.67
COC1=C2c3c4c5c(c(O)cc(OC)c5c5c(OC)cc(O)c(c35)C1=O)C(=O)[C@@]1(OC)O[C@@H](C)C[C@@]41[C@H]2C(C)=O [PHAEOSPHAERIN A] | – | – | – | – | 5.84 | 10.8 | 10.8
COc1cccc2c1C(=O)c1c(O)c3c(c(O)c1C2=O)C[C@@](O)(C(=O)CO)C[C@@H]3O[C@H]1C[C@H](N)[C@H](O)[C@H](C)O1 [DOXORUBICIN] | – | – | – | – | 19.5 | 23.5 | 16
COC1=C2c3c4c5c(c(O)cc(OC)c5c5c(OC)cc(O)c(c35)C1=O)C(=O)[C@@H](OC)[C@]4(CC(C)O)[C@@H]2C(C)=O (some centres undefined) [PHAEOSPHAERIN C] | Active | 19.5 | 7.08 | Active | 6.11 | 15.2 | 14.3
